Key:
Format in all cases: ADME
[1] = (§1) The drug is tested on Parabacteroides merdae strain: DSM19495 for biotransformation under anaerobic condition. The drug concentrations were measured over 6 timepoints collected between 0 and 12 hours of incubation by liquid-chromatography-coupled mass spectrometry (LC–MS); design: dose 5 uM, timepoint 0, 1.5, 3, 6, 9, 12 hours; conditions: 5 µM
[2] = as §1, with “the gut metagenome community of A-03 with ENA study accession number: PRJEB31790” for “Parabacteroides merdae strain: DSM19495”, “7” for “6”; design: dose 5 uM, timepoint 0, 0.75, 1.5, 3, 6, 9, 12 hours; conditions: 5 µM
[3] = The drug is tested on Lactobacillus ruminis strain: ATCC25644 for biotransformation under anaerobic condition. The drug concentrations were measured over 6 timepoints collected between 0 and 12 hours of incubation by liquid-chromatography-coupled mass spectrometry (LC–MS); design: dose 5 uM, timepoint 0, 1.5, 3, 6, 9, 12 hours; conditions: ligilactobacillus ruminis, 5 µM
[4] = (§2) The drug is tested on Lactobacillus gasseri strain: DSM20243 for biotransformation under microaerobic condition. The drug concentrations were measured over 6 timepoints collected between 0 and 12 hours of incubation by liquid-chromatography-coupled mass spectrometry (LC–MS); design: dose 5 uM, timepoint 0, 1.5, 3, 6, 9, 12 hours; conditions: 5 µM
[5] = The drug is tested on Streptococcus anginosus strain: DSM20563 for biotransformation under anaerobic condition. The drug concentrations were measured over 6 timepoints collected between 0 and 12 hours of incubation by liquid-chromatography-coupled mass spectrometry (LC–MS); design: dose 5 uM, timepoint 0, 1.5, 3, 6, 9, 12 hours; conditions: 5 µM
[6] = The drug is tested on Streptococcus sanguinis strain: DSM20567 for biotransformation under microaerobic condition. The drug concentrations were measured over 6 timepoints collected between 0 and 12 hours of incubation by liquid-chromatography-coupled mass spectrometry (LC–MS); design: dose 5 uM, timepoint 0, 1.5, 3, 6, 9, 12 hours; conditions: 5 µM
[7] = as §1, with “the gut metagenome community of A-10 with ENA study accession number: PRJEB31790” for “Parabacteroides merdae strain: DSM19495”, “7” for “6”; design: dose 5 uM, timepoint 0, 0.75, 1.5, 3, 6, 9, 12 hours; conditions: 5 µM
[8] = The drug is tested on Roseburia intestinalis strain: DSM14610 for biotransformation under anaerobic condition. The drug concentrations were measured over 6 timepoints collected between 0 and 12 hours of incubation by liquid-chromatography-coupled mass spectrometry (LC–MS); design: dose 5 uM, timepoint 0, 1.5, 3, 6, 9, 12 hours; conditions: 5 µM
[9] = as §2, with “the gut metagenome community of A-08 with ENA study accession number: PRJEB31790” for “Lactobacillus gasseri strain: DSM20243”, “7” for “6”; design: dose 5 uM, timepoint 0, 0.75, 1.5, 3, 6, 9, 12 hours; conditions: 5 µM
[10] = The drug is tested on Faecalibacterium prausnitzii strain: DSM17677 for biotransformation under anaerobic condition. The drug concentrations were measured over 6 timepoints collected between 0 and 12 hours of incubation by liquid-chromatography-coupled mass spectrometry (LC–MS); design: dose 5 uM, timepoint 0, 1.5, 3, 6, 9, 12 hours; conditions: faecalibacterium duncaniae, 5 µM
[11] = The drug is tested on Prevotella copri strain: DSM18205 for biotransformation under anaerobic condition. The drug concentrations were measured over 6 timepoints collected between 0 and 12 hours of incubation by liquid-chromatography-coupled mass spectrometry (LC–MS); design: dose 5 uM, timepoint 0, 1.5, 3, 6, 9, 12 hours; conditions: segatella copri, 5 µM
[12] = The drug is tested on Enterococcus faecalis strain: ATCC29212 for biotransformation under anaerobic condition. The drug concentrations were measured over 6 timepoints collected between 0 and 12 hours of incubation by liquid-chromatography-coupled mass spectrometry (LC–MS); design: dose 5 uM, timepoint 0, 1.5, 3, 6, 9, 12 hours; conditions: 5 µM
[13] = The drug is tested on Bifidobacterium adolescentis strain: DSM20083 for biotransformation under anaerobic condition. The drug concentrations were measured over 6 timepoints collected between 0 and 12 hours of incubation by liquid-chromatography-coupled mass spectrometry (LC–MS); design: dose 5 uM, timepoint 0, 1.5, 3, 6, 9, 12 hours; conditions: 5 µM
[14] = as §1, with “the gut metagenome community of P-01 with ENA study accession number: PRJEB31790” for “Parabacteroides merdae strain: DSM19495”, “7” for “6”; design: dose 5 uM, timepoint 0, 0.75, 1.5, 3, 6, 9, 12 hours; conditions: 5 µM
[15] = as §2, with “the gut metagenome community of A-10 with ENA study accession number: PRJEB31790” for “Lactobacillus gasseri strain: DSM20243”, “7” for “6”; design: dose 5 uM, timepoint 0, 0.75, 1.5, 3, 6, 9, 12 hours; conditions: 5 µM
[16] = as §1, with “the gut metagenome community of P-04 with ENA study accession number: PRJEB31790” for “Parabacteroides merdae strain: DSM19495”, “7” for “6”; design: dose 5 uM, timepoint 0, 0.75, 1.5, 3, 6, 9, 12 hours; conditions: 5 µM
[17] = The drug is tested on Bifidobacterium longum strain: DSM20088 for biotransformation under microaerobic condition. The drug concentrations were measured over 6 timepoints collected between 0 and 12 hours of incubation by liquid-chromatography-coupled mass spectrometry (LC–MS); design: dose 5 uM, timepoint 0, 1.5, 3, 6, 9, 12 hours; conditions: 5 µM
[18] = The drug is tested on Capnocytophaga ochracea strain: DSM7271 for biotransformation under microaerobic condition. The drug concentrations were measured over 6 timepoints collected between 0 and 12 hours of incubation by liquid-chromatography-coupled mass spectrometry (LC–MS); design: dose 5 uM, timepoint 0, 1.5, 3, 6, 9, 12 hours; conditions: 5 µM
[19] = The drug is tested on Actinomyces naeslundi strain: DSM43013 for biotransformation under microaerobic condition. The drug concentrations were measured over 6 timepoints collected between 0 and 12 hours of incubation by liquid-chromatography-coupled mass spectrometry (LC–MS); design: dose 5 uM, timepoint 0, 1.5, 3, 6, 9, 12 hours; conditions: actinomyces naeslundii, 5 µM
[20] = The drug is tested on Parabacteroides distasonis strain: DSM20701 for biotransformation under anaerobic condition. The drug concentrations were measured over 6 timepoints collected between 0 and 12 hours of incubation by liquid-chromatography-coupled mass spectrometry (LC–MS); design: dose 5 uM, timepoint 0, 1.5, 3, 6, 9, 12 hours; conditions: 5 µM
[21] = as §1, with “the gut metagenome community of A-05 with ENA study accession number: PRJEB31790” for “Parabacteroides merdae strain: DSM19495”, “7” for “6”; design: dose 5 uM, timepoint 0, 0.75, 1.5, 3, 6, 9, 12 hours; conditions: 5 µM
[22] = as §2, with “the gut metagenome community of T-03 with ENA study accession number: PRJEB31790” for “Lactobacillus gasseri strain: DSM20243”, “7” for “6”; design: dose 5 uM, timepoint 0, 0.75, 1.5, 3, 6, 9, 12 hours; conditions: 5 µM
[23] = as §2, with “the gut metagenome community of T-02 with ENA study accession number: PRJEB31790” for “Lactobacillus gasseri strain: DSM20243”, “7” for “6”; design: dose 5 uM, timepoint 0, 0.75, 1.5, 3, 6, 9, 12 hours; conditions: 5 µM
[24] = The drug is tested on Bacteroides thetaiotaomicron strain: DSM2079 for biotransformation under anaerobic condition. The drug concentrations were measured over 6 timepoints collected between 0 and 12 hours of incubation by liquid-chromatography-coupled mass spectrometry (LC–MS); design: dose 5 uM, timepoint 0, 1.5, 3, 6, 9, 12 hours; conditions: 5 µM
[25] = as §2, with “the gut metagenome community of A-04 with ENA study accession number: PRJEB31790” for “Lactobacillus gasseri strain: DSM20243”, “7” for “6”; design: dose 5 uM, timepoint 0, 0.75, 1.5, 3, 6, 9, 12 hours; conditions: 5 µM
[26] = The drug is tested on Capnocytophaga ochracea strain: DSM7271 for biotransformation under anaerobic condition. The drug concentrations were measured over 6 timepoints collected between 0 and 12 hours of incubation by liquid-chromatography-coupled mass spectrometry (LC–MS); design: dose 5 uM, timepoint 0, 1.5, 3, 6, 9, 12 hours; conditions: 5 µM
[27] = The drug is tested on Gemella morbillorum strain: DSM20572 for biotransformation under microaerobic condition. The drug concentrations were measured over 6 timepoints collected between 0 and 12 hours of incubation by liquid-chromatography-coupled mass spectrometry (LC–MS); design: dose 5 uM, timepoint 0, 1.5, 3, 6, 9, 12 hours; conditions: 5 µM
[28] = as §1, with “the gut metagenome community of A-09 with ENA study accession number: PRJEB31790” for “Parabacteroides merdae strain: DSM19495”, “7” for “6”; design: dose 5 uM, timepoint 0, 0.75, 1.5, 3, 6, 9, 12 hours; conditions: 5 µM
[29] = The drug is tested on Enterococcus faecalis strain: ATCC29212 for biotransformation under microaerobic condition. The drug concentrations were measured over 6 timepoints collected between 0 and 12 hours of incubation by liquid-chromatography-coupled mass spectrometry (LC–MS); design: dose 5 uM, timepoint 0, 1.5, 3, 6, 9, 12 hours; conditions: 5 µM
[30] = The drug is tested on Bacteroides stercoris strain: HM 1036 for biotransformation under anaerobic condition. The drug concentrations were measured over 6 timepoints collected between 0 and 12 hours of incubation by liquid-chromatography-coupled mass spectrometry (LC–MS); design: dose 5 uM, timepoint 0, 1.5, 3, 6, 9, 12 hours; conditions: 5 µM

Row | Bacterial Biotransformation [1] | Bacterial Biotransformation [2] | Bacterial Biotransformation [3] | Bacterial Biotransformation [4] | Bacterial Biotransformation [5] | Bacterial Biotransformation [6] | Bacterial Biotransformation [7] | Bacterial Biotransformation [8] | Bacterial Biotransformation [9] | Bacterial Biotransformation [10] | Bacterial Biotransformation [11] | Bacterial Biotransformation [12] | Bacterial Biotransformation [13] | Bacterial Biotransformation [14] | Bacterial Biotransformation [15] | Bacterial Biotransformation [16] | Bacterial Biotransformation [17] | Bacterial Biotransformation [18] | Bacterial Biotransformation [19] | Bacterial Biotransformation [20] | Compound | further results
1 | Compound NOT metabolized | Compound NOT metabolized | Compound NOT metabolized | Compound NOT metabolized | Compound NOT metabolized | Compound NOT metabolized | Compound NOT metabolized | Compound NOT metabolized | Compound NOT metabolized | Compound NOT metabolized | Compound NOT metabolized | Compound NOT metabolized | Compound NOT metabolized | Compound NOT metabolized | Compound NOT metabolized | Compound NOT metabolized | Compound NOT metabolized | Compound NOT metabolized | Compound NOT metabolized | Compound NOT metabolized | CCOC(=O)[C@H](CCc1ccccc1)N[C@@H](C)C(=O)N1[C@H](C(=O)O)C[C@@H]2CCC[C@@H]21 | Bacterial Biotransformation [21]: Compound NOT metabolized; Bacterial Biotransformation [22]: Compound NOT metabolized; Bacterial Biotransformation [23]: Compound NOT metabolized; Bacterial Biotransformation [24]: Compound NOT metabolized; Bacterial Biotransformation [25]: Compound NOT metabolized; Bacterial Biotransformation [26]: Compound NOT metabolized; Bacterial Biotransformation [27]: Compound NOT metabolized; Bacterial Biotransformation [28]: Compound NOT metabolized; Bacterial Biotransformation [29]: Compound NOT metabolized; Bacterial Biotransformation [30]: Compound NOT metabolized
2 | Compound metabolized | Compound metabolized | Compound NOT metabolized | Compound NOT metabolized | Compound metabolized | Compound NOT metabolized | Compound NOT metabolized | Compound metabolized | Compound metabolized | Compound metabolized | Compound metabolized | Compound metabolized | Compound metabolized | Compound metabolized | Compound NOT metabolized | Compound NOT metabolized | Compound metabolized | Compound metabolized | Compound NOT metabolized | Compound metabolized | Cn1cnc([N+](=O)[O-])c1Sc1ncnc2nc[nH]c12 [AZATHIOPRINE] | Bacterial Biotransformation [21]: Compound metabolized; Bacterial Biotransformation [22]: Compound metabolized; Bacterial Biotransformation [23]: Compound NOT metabolized; Bacterial Biotransformation [24]: Compound metabolized; Bacterial Biotransformation [25]: Compound metabolized; Bacterial Biotransformation [26]: Compound NOT metabolized; Bacterial Biotransformation [27]: Compound NOT metabolized; Bacterial Biotransformation [28]: Compound metabolized; Bacterial Biotransformation [29]: Compound metabolized; Bacterial Biotransformation [30]: Compound metabolized
3 | Compound NOT metabolized | Compound NOT metabolized | Compound NOT metabolized | Compound NOT metabolized | Compound NOT metabolized | Compound NOT metabolized | Compound NOT metabolized | Compound NOT metabolized | Compound NOT metabolized | Compound NOT metabolized | Compound NOT metabolized | Compound NOT metabolized | Compound NOT metabolized | Compound NOT metabolized | Compound NOT metabolized | Compound NOT metabolized | Compound NOT metabolized | Compound NOT metabolized | Compound NOT metabolized | Compound NOT metabolized | NS(=O)(=O)c1cc(C(=O)O)c(NCc2ccco2)cc1Cl [FUROSEMIDE] | Bacterial Biotransformation [21]: Compound NOT metabolized; Bacterial Biotransformation [22]: Compound NOT metabolized; Bacterial Biotransformation [23]: Compound NOT metabolized; Bacterial Biotransformation [24]: Compound NOT metabolized; Bacterial Biotransformation [25]: Compound NOT metabolized; Bacterial Biotransformation [26]: Compound NOT metabolized; Bacterial Biotransformation [27]: Compound NOT metabolized; Bacterial Biotransformation [28]: Compound NOT metabolized; Bacterial Biotransformation [29]: Compound NOT metabolized; Bacterial Biotransformation [30]: Compound NOT metabolized
